Values after ≈ are worked out from the molar mass of the structure shown.
Columns and labels:
Assay in all cases: Agar dilution MIC
Veillonella spp. = assay type: cell-based; settings: Veillonella, 24 isolates
[1] = tested on: Prevotella melaninogenica; assay type: cell-based; settings: 12 isolates
Fusobacterium russii = assay type: cell-based; settings: Fusobacterium russii
Actinomyces israelii = assay type: cell-based; settings: 6 isolates
Prevotella intermedia = assay type: cell-based; settings: 11 isolates
Bacteroides ureolyticus = assay type: cell-based; settings: Campylobacter ureolyticus, 17 isolates
[2] = tested on: Anaerobiospirillum thomasii; assay type: cell-based; settings: 13 isolates
Porphyromonas spp. = assay type: cell-based, Porphyromonas cangingivalis, cansulci, circumdentaria, levii; settings: Porphyromonas, 11 isolates
[3] = tested on: Peptostreptococcus prevotii; assay type: cell-based; settings: Anaerococcus prevotii, read-out: Minimal Inhibitory Concentration 50% (MIC50); 9 isolates
Prevotella bivia = assay type: cell-based; settings: Prevotella bivia, 21 isolates
Clostridium ramosum = assay type: cell-based; settings: Thomasclavelia ramosa, 10 isolates
[4] = tested on: Peptostreptococcus micros; assay type: cell-based; settings: 12 isolates
Clostridium inocuum = assay type: cell-based, Clostridium innocuum; settings: Clostridium, 11 isolates
[5] = tested on: Porphyromonas asaccharolyticus; assay type: cell-based, Porphyromonas asaccharolytica; settings: 11 isolates
Fusobacterium varium = assay type: cell-based; settings: Fusobacterium varium, 17 isolates
[6] = tested on: Clostridium clostridioforme; assay type: cell-based; settings: Clostridium, 11 isolates
[7] = tested on: Prevotella heparinolytica; assay type: cell-based; settings: 16 isolates
Bilophila wadsworthia = assay type: cell-based; settings: 16 isolates, agar supplemented with pyruvate
[8] = tested on: Peptostreptococcus magnus; assay type: cell-based; settings: Finegoldia magna, 13 isolates
[9] = tested on: Actinomyces odontolyticus; assay type: cell-based; settings: Schaalia odontolytica, 10 isolates
[10] = tested on: Fusobacterium spp. group 2; assay type: cell-based, Fusobacterium mortiferum, necrogenes, ulcerans; settings: Fusobacterium, 12 isolates
[11] = tested on: Fusobacterium spp group 1; assay type: cell-based; settings: Fusobacterium, 19 isolates
[12] = tested on: Anaerobiospirillum succiniciproducens; assay type: cell-based; settings: 3 isolates
[13] = tested on: Peptostreptococcus asaccharolyticus; assay type: cell-based; settings: Peptoniphilus asaccharolyticus, 11 isolates
Bacteroides tectum = assay type: cell-based; settings: 22 isolates
Bacteroides gracilis = assay type: cell-based, Bacteroides gracilis (Campylobacter gracilis); settings: Campylobacter gracilis, 11 isolates
Clostridium dfficile = assay type: cell-based, Clostridium difficile; settings: Clostridium
[14] = tested on: Prevotella denticola/loeschii group; assay type: cell-based; settings: Prevotella denticola, read-out: Minimal Inhibitory Concentration 50% (MIC50); 6 isolates
[15] = tested on: Prevotella buccae-oris group; assay type: cell-based; settings: 22 isolates
Porphyromonas gingivalis = assay type: cell-based; settings: 13 isolates
Porphyromonas macaccae = assay type: cell-based; settings: 13 isolates
Porphyromonas canoris = assay type: cell-based; settings: 10 isolates
[16] = read-out: Minimal Inhibitory Concentration 90% (MIC90)
[17] = read-out: Minimal Inhibitory Concentration 50% (MIC50)
[18] = Porphyromonas, read-out: Minimal Inhibitory Concentration 50% (MIC50)
[19] = Porphyromonas, read-out: Minimal Inhibitory Concentration 90% (MIC90)

With `CC[C@H]1OC(=O)[C@H](C)[C@@H](O[C@H]2C[C@@](C)(OC)[C@@H](O)[C@H](C)O2)[C@H](C)[C@@H](O[C@@H]2O[C@H](C)C[C@H](N(C)C)[C@H]2O)[C@](C)(O)C[C@@H](C)C(=O)[C@H](C)[C@@H](O)[C@]1(C)O` [Erythromycin] the MIC90 (Veillonella spp.; [16]) was greater than 32 µg/mL, the MIC50 (Veillonella spp.; [17]) was 16 µg/mL (≈ 21.8 µM) and the “Minimal Inhibitory Concentration Range” value [1] was 0.06 to 32 µg/mL. It also gave an MIC90 ([1]; Prevotella melaninogenica, read-out: Minimal Inhibitory Concentration 90% (MIC90)) of 8 µg/mL (≈ 10.9 µM), an MIC50 ([1]; Prevotella melaninogenica, read-out: Minimal Inhibitory Concentration 50% (MIC50)) of 1 µg/mL (≈ 1.36 µM) and an MIC50 (Fusobacterium russii; [17]) of 4 µg/mL (≈ 5.45 µM). For the same compound, the MIC90 (Fusobacterium russii; [16]) was greater than 32 µg/mL, the “Minimal Inhibitory Concentration Range” value (Actinomyces israelii) was 0.03 µg/mL and the MIC50 (Actinomyces israelii; Actinomyces israelii, read-out: Minimal Inhibitory Concentration 50% (MIC50)) was 0.03 µg/mL (≈ 0.0409 µM). For the same compound, the “Minimal Inhibitory Concentration Range” value (Prevotella intermedia) was 0.03 to 0.5 µg/mL, the MIC90 (Prevotella intermedia; Prevotella intermedia, read-out: Minimal Inhibitory Concentration 90% (MIC90)) was 0.25 µg/mL (≈ 0.341 µM) and the MIC50 (Prevotella intermedia; Prevotella intermedia, read-out: Minimal Inhibitory Concentration 50% (MIC50)) was 0.06 µg/mL (≈ 0.0818 µM). For the same compound, the MIC90 (Bacteroides ureolyticus; [16]) was 2 µg/mL (≈ 2.73 µM), the MIC50 (Bacteroides ureolyticus; [17]) was 0.025 µg/mL (≈ 0.0341 µM) and the “Minimal Inhibitory Concentration Range” value [2] was 1 to 16 µg/mL. For the same compound, the MIC50 ([2]; Anaerobiospirillum thomasii, read-out: Minimal Inhibitory Concentration 50% (MIC50)) was 4 µg/mL (≈ 5.45 µM), the MIC90 ([2]; Anaerobiospirillum thomasii, read-out: Minimal Inhibitory Concentration 90% (MIC90)) was 8 µg/mL (≈ 10.9 µM) and the MIC50 (Porphyromonas spp.; [17]) was 0.06 µg/mL (≈ 0.0818 µM). It also gave an MIC90 (Porphyromonas spp.; [16]) of 0.06 µg/mL (≈ 0.0818 µM), an MIC50 [3] greater than 32 µg/mL and an MIC90 (Prevotella bivia; [16]) of 2 µg/mL (≈ 2.73 µM). It also gave an MIC50 (Prevotella bivia; [17]) of 1 µg/mL (≈ 1.36 µM), an MIC50 (Clostridium ramosum; [17]) of 1 µg/mL (≈ 1.36 µM) and an MIC90 (Clostridium ramosum; [16]) greater than 32 µg/mL. For the same compound, the “Minimal Inhibitory Concentration Range” value [4] was 0.5 to 1 µg/mL, the MIC50 ([4]; Parvimonas micra, read-out: Minimal Inhibitory Concentration 50% (MIC50)) was 0.5 µg/mL (≈ 0.681 µM) and the MIC90 ([4]; Parvimonas micra, read-out: Minimal Inhibitory Concentration 90% (MIC90)) was 0.5 µg/mL (≈ 0.681 µM). The MIC90 (Clostridium inocuum; [16]) was greater than 32 µg/mL, the MIC50 (Clostridium inocuum; [17]) was greater than 32 µg/mL and the “Minimal Inhibitory Concentration Range” value [5] was 0.03 to 32 µg/mL. It also gave an MIC50 [5, 18] of 0.03 µg/mL (≈ 0.0409 µM), an MIC90 [5, 19] of 32 µg/mL (≈ 43.6 µM) and an MIC50 (Fusobacterium varium; [17]) greater than 32 µg/mL. It also gave an MIC90 (Fusobacterium varium; [16]) greater than 32 µg/mL, an MIC90 [6, 16] greater than 32 µg/mL and an MIC50 [6, 17] of 16 µg/mL (≈ 21.8 µM). The “Minimal Inhibitory Concentration Range” value [7] was 0.25 to 0.5 µg/mL, the MIC90 ([7]; Prevotella heparinolytica, read-out: Minimal Inhibitory Concentration 90% (MIC90)) was 0.25 µg/mL (≈ 0.341 µM) and the MIC50 ([7]; Prevotella heparinolytica, read-out: Minimal Inhibitory Concentration 50% (MIC50)) was 0.25 µg/mL (≈ 0.341 µM). For the same compound, the “Minimal Inhibitory Concentration Range” value (Bilophila wadsworthia) was 4 to 32 µg/mL, the MIC90 (Bilophila wadsworthia; Bilophila wadsworthia, read-out: Minimal Inhibitory Concentration 90% (MIC90)) was 32 µg/mL (≈ 43.6 µM) and the MIC50 (Bilophila wadsworthia; Bilophila wadsworthia, read-out: Minimal Inhibitory Concentration 50% (MIC50)) was 16 µg/mL (≈ 21.8 µM). The MIC50 [8, 17] was 4 µg/mL (≈ 5.45 µM), the MIC90 [8, 16] was greater than 32 µg/mL and the MIC90 [9, 16] was 0.03 µg/mL (≈ 0.0409 µM). The MIC50 [9, 17] was no more than 0.015 µg/mL, the MIC50 [10, 17] was greater than 32 µg/mL and the MIC90 [10, 16] was greater than 32 µg/mL. The MIC50 ([11]; GROUP1, read-out: Minimal Inhibitory Concentration 50% (MIC50)) was 8 µg/mL (≈ 10.9 µM), the MIC90 ([11]; GROUP1, read-out: Minimal Inhibitory Concentration 90% (MIC90)) was 32 µg/mL (≈ 43.6 µM) and the “Minimal Inhibitory Concentration Range” value [12] was 8 to 16 µg/mL. For the same compound, the MIC50 ([12]; Anaerobiospirillum succiniciproducens, read-out: Minimal Inhibitory Concentration 50% (MIC50)) was 16 µg/mL (≈ 21.8 µM), the MIC50 [13, 17] was 4 µg/mL (≈ 5.45 µM) and the MIC90 [13, 16] was greater than 32 µg/mL. The “Minimal Inhibitory Concentration Range” value (Bacteroides tectum) was 0.25 to 1 µg/mL, the MIC90 (Bacteroides tectum; Bacteroides pyogenes, read-out: Minimal Inhibitory Concentration 90% (MIC90)) was 0.5 µg/mL (≈ 0.681 µM) and the MIC50 (Bacteroides tectum; Bacteroides pyogenes, read-out: Minimal Inhibitory Concentration 50% (MIC50)) was 0.5 µg/mL (≈ 0.681 µM). For the same compound, the MIC90 (Bacteroides gracilis; [16]) was 2 µg/mL (≈ 2.73 µM), the MIC50 (Bacteroides gracilis; [17]) was 1 µg/mL (≈ 1.36 µM) and the MIC50 (Clostridium dfficile; [17]) was 0.5 µg/mL (≈ 0.681 µM). For the same compound, the MIC90 (Clostridium dfficile; read-out: Minimal Inhibitory Concentration 90% (MIC90), 14 isolates) was greater than 32 µg/mL, the MIC50 [14] was 0.25 µg/mL (≈ 0.341 µM) and the “Minimal Inhibitory Concentration Range” value [15] was 0.5 to 8 µg/mL. The MIC90 ([15]; Prevotella, read-out: Minimal Inhibitory Concentration 90% (MIC90)) was 2 µg/mL (≈ 2.73 µM), the MIC50 ([15]; Prevotella, read-out: Minimal Inhibitory Concentration 50% (MIC50)) was 1 µg/mL (≈ 1.36 µM) and the “Minimal Inhibitory Concentration Range” value (Porphyromonas gingivalis) was 0.06 to 0.5 µg/mL. The MIC50 (Porphyromonas gingivalis; Porphyromonas gingivalis, read-out: Minimal Inhibitory Concentration 50% (MIC50)) was 0.125 µg/mL (≈ 0.17 µM), the MIC90 (Porphyromonas gingivalis; Porphyromonas gingivalis, read-out: Minimal Inhibitory Concentration 90% (MIC90)) was 0.5 µg/mL (≈ 0.681 µM) and the “Minimal Inhibitory Concentration Range” value (Porphyromonas macaccae) was 0.06 to 0.25 µg/mL. For the same compound, the MIC50 (Porphyromonas macaccae; [18]) was 0.125 µg/mL (≈ 0.17 µM), the MIC90 (Porphyromonas macaccae; [19]) was 0.25 µg/mL (≈ 0.341 µM) and the “Minimal Inhibitory Concentration Range” value (Porphyromonas canoris) was 0.03 to 0.25 µg/mL. For the same compound, the MIC50 (Porphyromonas canoris; Porphyromonas canoris, read-out: Minimal Inhibitory Concentration 50% (MIC50)) was 0.06 µg/mL (≈ 0.0818 µM) and the MIC90 (Porphyromonas canoris; Porphyromonas canoris, read-out: Minimal Inhibitory Concentration 90% (MIC90)) was 0.125 µg/mL (≈ 0.17 µM).

Reference: US6455540B1, “Methods of use of quinolone compounds against anaerobic pathogenic bacteria” (priority 1999, dated 2002)
